The results in this text go back to patent publication US20110160306A1, “USE OF ALKANEDICARBOXYLIC ACIDS AND RETINOIDS FOR TREATMENT OF ROSACEA AND OTHER INFLAMMATORY SKIN DISEASES” (priority 2006, published 2011).

The test system of this test is irritative contact dermatitis induced on the ears of mice by croton oil. The test is described as follows: Croton oil-induced irritative contact dermatitis on the mouse ear (ear weight, elastase and peroxidase in ear homogenate). Format: in vivo. The conditions noted are these: for Edema formation Weight change in %: ear weight at 24 h, vs croton oil + vehicle; for Inhibition [%] of Skin infiltration of Granulocytes & Monocytes (Myelo-Peroxidase Activity) / Inhibition [%] of Skin infiltration of Neutrophils Elastase Activity: ear homogenate at 24 h. The source says: To do this, an inflammatory reaction, i.e., irritative contact dermatitis, is induced on the ears of mice by means of croton oil, and the test substance is applied. This test is explained in more detail below within the framework of the examples. The induction of an inflammatory reaction (irritative contact dermatitis) is a proven model for pharmacological evaluation of the anti-inflammatory potential of topically or systemically administered test substances ([…] and Lowe (1985) Evaluation of Topical Nonsteroidal Anti-Inflammatory Agents, Models in Dermatology, H. Maibach and N.J. Lowe. Basel, Karger: 35-42). Croton oil is applied to the ears of mice to carry out the study; this leads to an acute, inflammatory reaction with edema and infiltration of primarily polymorphonuclear granulocytes that reaches its peak within 24 hours. Test substance can be applied here either preventively, i.e., before application of the inflammatory stimulus, or simultaneously with croton oil. […] The vehicle alone acted as the vehicle control. […] The animals were sacrificed 24 hours after the eczema was triggered, and the ear weight was determined as a measure of inflammation and edema formation. In addition, the elastase and peroxidase parameters were determined from the ear homogenate. The number of animals was basically n=10/group. Elastase is a largely neutrophil-specific enzyme and thus a measure of the number of infiltrated neutrophilic granulocytes. […] Peroxidase is expressed by all granulocytes, in addition also by monocytes. It is used for measuring the infiltrated granulocytes and monocytes. Like neutrophils, granulocytes and monocytes/macrophages are also involved in inflammatory processes of the skin and can be repeatedly detected in the infiltrate of the aforementioned diseases.

Where [1] appears, read: azelaic acid 10%, listed as azelaic acid.
Where [2] appears, read: azelaic acid 20%, listed as azelaic acid.
Setting [3] is: tretinoin 0.05%, listed as tretinoin.

Molecules are shown by their SMILES.

As for `O=C(O)CCCCCCCC(=O)O` [Azelaic acid, azelaic acid], the “Edema formation Weight change in %” value is listed as −6% (azelaic acid 10% topical with 1% croton oil); “no significant reduction of the edema” (azelaic acid 10% topical with 1% croton oil, listed as azelaic acid); 1% (azelaic acid 15% topical with 1% croton oil); “even an increase” (azelaic acid 15% topical with 1% croton oil, listed as azelaic acid); −16% (azelaic acid 20% topical with 1% croton oil); “no significant reduction of the edema” (azelaic acid 20% topical with 1% croton oil, listed as azelaic acid). Also, the “Inhibition [%] of Skin infiltration of Granulocytes & Monocytes (Myelo-Peroxidase Activity)” value is, setting by setting: (azelaic acid 10%) −34%; under setting [1], “could already be influenced”; (azelaic acid 15%) −16%; (azelaic acid 20%) −40%; under setting [2], “could already be influenced”. Further, the “Inhibition [%] of Skin infiltration of Neutrophils Elastase Activity” value was −12% (azelaic acid 10%); “cannot be significantly influenced” under setting [1]; −6% (azelaic acid 15%); “cannot be significantly influenced” (azelaic acid 15%, listed as azelaic acid); −48% (azelaic acid 20%); “reduced” under setting [2].

Regarding `CC1=C(/C=C/C(C)=C/C=C/C(C)=C/C(=O)O)C(C)(C)CCC1` [Tretinoin, tretinoin], the “Edema formation Weight change in %” value is, setting by setting: (tretinoin 0.05% topical with 1% croton oil) −4%; (tretinoin 0.05% topical with 1% croton oil, listed as tretinoin) “does not lead to any significant reduction of edema”. Moreover, the “Inhibition [%] of Skin infiltration of Granulocytes & Monocytes (Myelo-Peroxidase Activity)” value is listed as −3% (tretinoin 0.05%) and “did not lead to a significant decrease of peroxidase concentration” under setting [3]. In addition, the “Inhibition [%] of Skin infiltration of Neutrophils Elastase Activity” value was 2% (tretinoin 0.05%) and “did not lead to a decrease of the elastase concentration” under setting [3].
